Test results as given in article PMC6409085, “Three odorant-binding proteins are involved in the behavioral response of Sogatella furcifera to rice plant volatiles” (PeerJ, 2019).
Several values for one entry are separate records, joined by “and”; a condition that tells them apart may be missing. Identical values can stand only once.

How the values were obtained:
SfurOBP3 = SfurOBP3 (Sogatella furcifera, UniProt V5T818); assay: biochemical; type: binding; settings: for Fluorescence competitive binding assay, fluorescence intensity: OBP3, three replicate columns
How it was run: (§1)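 Fluorescence competitive binding with 1-NPN as reporter: 2.0 µM protein and 2.0 µM 1-NPN in 50 mM Tris-HCl pH 7.4, odorant added at 2–20 µM final. Excitation 337 nm, emission 390–490 nm read 2 min after addition, triplicates. Ki = IC50/(1 + [1-NPN]/K1-NPN).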

SfurOBP11 = SfurOBP11 (Sogatella furcifera, UniProt V5T6E3); assay: biochemical; type: binding
How it was run: as §1

SfurOBP1 = SfurOBP1 (Sogatella furcifera, UniProt V5T8N5); assay: biochemical; type: binding; settings: for Fluorescence competitive binding assay, fluorescence intensity: OBP1, three replicate columns
How it was run: as §1

SfurOBP2 = SfurOBP2 (Sogatella furcifera, UniProt V5T759); assay: biochemical; type: binding
How it was run: as §1

S. furcifera adults = assay: Y-tube olfactometer behavioral trials; type: in vivo, Sogatella furcifera; settings: odorant 50 µL/L vs hexane; adults
How it was run: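 Single S. furcifera adults (2 days post-emergence, starved 0.5 h) chose between odorant (100 µL of 50 µL/L on filter paper) and hexane control in a glass Y-tube, charcoal-filtered humidified air 300 mL/min per arm, 25 ± 1 °C, 50% RH. Choice scored if insect passed half an arm and stayed >1 min within 10 min; 45 insects per compound, chi-squared test.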

Sequence of SfurOBP1 (V5T8N5 entry or part of it): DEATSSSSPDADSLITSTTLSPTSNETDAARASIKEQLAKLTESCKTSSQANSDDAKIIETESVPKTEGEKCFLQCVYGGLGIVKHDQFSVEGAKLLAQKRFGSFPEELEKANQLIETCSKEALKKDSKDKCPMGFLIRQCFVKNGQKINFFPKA
Sequence of SfurOBP3 (V5T818 entry or part of it): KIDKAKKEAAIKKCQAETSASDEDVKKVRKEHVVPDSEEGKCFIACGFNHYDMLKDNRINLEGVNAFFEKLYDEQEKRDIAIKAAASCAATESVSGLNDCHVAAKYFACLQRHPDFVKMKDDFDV
Sequence of SfurOBP11 (V5T6E3 entry or part of it): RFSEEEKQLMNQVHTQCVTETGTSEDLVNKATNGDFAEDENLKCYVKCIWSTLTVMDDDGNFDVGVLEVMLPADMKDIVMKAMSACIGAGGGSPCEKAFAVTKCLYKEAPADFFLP
Sequence of SfurOBP2 (V5T759 entry or part of it): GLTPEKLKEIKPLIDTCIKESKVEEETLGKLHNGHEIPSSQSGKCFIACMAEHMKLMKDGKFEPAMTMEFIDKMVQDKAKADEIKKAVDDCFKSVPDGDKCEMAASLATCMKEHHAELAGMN

Fluorescence competitive binding assay, fluorescence intensity (SfurOBP3; ligand concentration 2): 54416 and 49651 and 50603 | Fluorescence competitive binding assay, fluorescence intensity (SfurOBP3; ligand concentration 4): 47681 and 49063 and 52745 | Fluorescence competitive binding assay, fluorescence intensity (SfurOBP3; ligand concentration 6): 47400 and 49699 and 51997 | Fluorescence competitive binding assay, fluorescence intensity (SfurOBP3; ligand concentration 8): 47134 and 47465 and 47300 | Fluorescence competitive binding assay, fluorescence intensity (SfurOBP3; ligand concentration 10): 47300 and 47488 and 47127 | Fluorescence competitive binding assay, fluorescence intensity (SfurOBP3; ligand concentration 12): 41818 and 40552 and 41184 | Fluorescence competitive binding assay, fluorescence intensity (SfurOBP3; ligand concentration 14): 39535 and 41064 and 41296 | Fluorescence competitive binding assay, fluorescence intensity (SfurOBP3; ligand concentration 16): 37737 and 36118 and 39070 | Fluorescence competitive binding assay, fluorescence intensity (SfurOBP3; ligand concentration 18): 41678 and 41915 and 41872 | Fluorescence competitive binding assay, fluorescence intensity (SfurOBP3; ligand concentration 20): 43199 and 40517 and 41843 | IC50 (SfurOBP3; SfurOBP3, protein and 1-NPN both 2.0 µM, competitor 2-20 µM, read-out: IC50): > 20 µM | IC50 (SfurOBP11; SfurOBP11, protein and 1-NPN both 2.0 µM, competitor 2-20 µM, read-out: IC50): > 20 µM | Fluorescence intensity, fluorescence competitive binding assay, OBP11 (SfurOBP11; ligand concentration 2, replicate 1): 29622 | Fluorescence intensity, fluorescence competitive binding assay, OBP11 (SfurOBP11; ligand concentration 2, replicate 2): 27160 | Fluorescence intensity, fluorescence competitive binding assay, OBP11 (SfurOBP11; ligand concentration 2, replicate 3): 24651 | Fluorescence intensity, fluorescence competitive binding assay, OBP11 (SfurOBP11; ligand concentration 4, replicate 1): 27823 | Fluorescence intensity, fluorescence competitive binding assay, OBP11 (SfurOBP11; ligand concentration 4, replicate 2): 29657 | Fluorescence intensity, fluorescence competitive binding assay, OBP11 (SfurOBP11; ligand concentration 4, replicate 3): 29706 | Fluorescence intensity, fluorescence competitive binding assay, OBP11 (SfurOBP11; ligand concentration 6, replicate 1): 29000 | Fluorescence intensity, fluorescence competitive binding assay, OBP11 (SfurOBP11; ligand concentration 6, replicate 2): 25791 | Fluorescence intensity, fluorescence competitive binding assay, OBP11 (SfurOBP11; ligand concentration 6, replicate 3): 27264 | Fluorescence intensity, fluorescence competitive binding assay, OBP11 (SfurOBP11; ligand concentration 8, replicate 1): 26196 | Fluorescence intensity, fluorescence competitive binding assay, OBP11 (SfurOBP11; ligand concentration 8, replicate 2): 25787 | Fluorescence intensity, fluorescence competitive binding assay, OBP11 (SfurOBP11; ligand concentration 8, replicate 3): 26691 | Fluorescence intensity, fluorescence competitive binding assay, OBP11 (SfurOBP11; ligand concentration 10, replicate 1): 22993 | Fluorescence intensity, fluorescence competitive binding assay, OBP11 (SfurOBP11; ligand concentration 10, replicate 2): 24045 | Fluorescence intensity, fluorescence competitive binding assay, OBP11 (SfurOBP11; ligand concentration 10, replicate 3): 23459 | Fluorescence intensity, fluorescence competitive binding assay, OBP11 (SfurOBP11; ligand concentration 12, replicate 1): 23301 | Fluorescence intensity, fluorescence competitive binding assay, OBP11 (SfurOBP11; ligand concentration 12, replicate 2): 22698 | Fluorescence intensity, fluorescence competitive binding assay, OBP11 (SfurOBP11; ligand concentration 12, replicate 3): 22770 | Fluorescence intensity, fluorescence competitive binding assay, OBP11 (SfurOBP11; ligand concentration 14, replicate 1): 21327 | Fluorescence intensity, fluorescence competitive binding assay, OBP11 (SfurOBP11; ligand concentration 14, replicate 2): 20283 | Fluorescence intensity, fluorescence competitive binding assay, OBP11 (SfurOBP11; ligand concentration 14, replicate 3): 20685 | Fluorescence intensity, fluorescence competitive binding assay, OBP11 (SfurOBP11; ligand concentration 16, replicate 1): 18242 | Fluorescence intensity, fluorescence competitive binding assay, OBP11 (SfurOBP11; ligand concentration 16, replicate 2): 16904 | Fluorescence intensity, fluorescence competitive binding assay, OBP11 (SfurOBP11; ligand concentration 16, replicate 3): 18315 | Fluorescence intensity, fluorescence competitive binding assay, OBP11 (SfurOBP11; ligand concentration 18, replicate 1): 21574 | Fluorescence intensity, fluorescence competitive binding assay, OBP11 (SfurOBP11; ligand concentration 18, replicate 2): 21057 | Fluorescence intensity, fluorescence competitive binding assay, OBP11 (SfurOBP11; ligand concentration 18, replicate 3): 21178 | Fluorescence intensity, fluorescence competitive binding assay, OBP11 (SfurOBP11; ligand concentration 20, replicate 1): 19958 | Fluorescence intensity, fluorescence competitive binding assay, OBP11 (SfurOBP11; ligand concentration 20, replicate 2): 19749 | Fluorescence intensity, fluorescence competitive binding assay, OBP11 (SfurOBP11; ligand concentration 20, replicate 3): 19854 | Fluorescence competitive binding assay, fluorescence intensity (SfurOBP1; ligand concentration 2 (μM)): 7058 and 6495 and 6761 | Fluorescence competitive binding assay, fluorescence intensity (SfurOBP1; ligand concentration 4 (μM)): 6839 and 6210 and 6737 | Fluorescence competitive binding assay, fluorescence intensity (SfurOBP1; ligand concentration 6 (μM)): 6250 and 6285 and 6245 | Fluorescence competitive binding assay, fluorescence intensity (SfurOBP1; ligand concentration 8 (μM)): 7860 and 6318 and 6460 | Fluorescence competitive binding assay, fluorescence intensity (SfurOBP1; ligand concentration 10 (μM)): 7929 and 6952 and 5745 | Fluorescence competitive binding assay, fluorescence intensity (SfurOBP1; ligand concentration 12 (μM)): 6197 and 6258 and 6135 | Fluorescence competitive binding assay, fluorescence intensity (SfurOBP1; ligand concentration 14 (μM)): 6889 and 6127 and 7279 | Fluorescence competitive binding assay, fluorescence intensity (SfurOBP1; ligand concentration 16 (μM)): 6363 and 6530 and 5971 | Fluorescence competitive binding assay, fluorescence intensity (SfurOBP1; ligand concentration 18 (μM)): 6197 and 6677 and 5953 | Fluorescence competitive binding assay, fluorescence intensity (SfurOBP1; ligand concentration 20 (μM)): 6241 and 6216 and 6243 | IC50 (SfurOBP1; SfurOBP1, protein and 1-NPN both 2.0 µM, competitor 2-20 µM, read-out: IC50): > 20 µM | IC50 (SfurOBP2; SfurOBP2, protein and 1-NPN both 2.0 µM, competitor 2-20 µM, read-out: IC50): > 20 µM | Fluorescence competitive binding assay, OBP2 (raw fluorescence reading) (SfurOBP2; ligand concentration 2 (unit not given), replicate column 1 of 3): 19948 | Fluorescence competitive binding assay, OBP2 (raw fluorescence reading) (SfurOBP2; ligand concentration 2 (unit not given), replicate column 2 of 3): 17721 | Fluorescence competitive binding assay, OBP2 (raw fluorescence reading) (SfurOBP2; ligand concentration 2 (unit not given), replicate column 3 of 3): 20397 | Fluorescence competitive binding assay, OBP2 (raw fluorescence reading) (SfurOBP2; ligand concentration 4 (unit not given), replicate column 1 of 3): 18968 | Fluorescence competitive binding assay, OBP2 (raw fluorescence reading) (SfurOBP2; ligand concentration 4 (unit not given), replicate column 2 of 3): 18911 | Fluorescence competitive binding assay, OBP2 (raw fluorescence reading) (SfurOBP2; ligand concentration 4 (unit not given), replicate column 3 of 3): 20133 | Fluorescence competitive binding assay, OBP2 (raw fluorescence reading) (SfurOBP2; ligand concentration 6 (unit not given), replicate column 1 of 3): 20477 | Fluorescence competitive binding assay, OBP2 (raw fluorescence reading) (SfurOBP2; ligand concentration 6 (unit not given), replicate column 2 of 3): 18306 | Fluorescence competitive binding assay, OBP2 (raw fluorescence reading) (SfurOBP2; ligand concentration 6 (unit not given), replicate column 3 of 3): 21619 | Fluorescence competitive binding assay, OBP2 (raw fluorescence reading) (SfurOBP2; ligand concentration 8 (unit not given), replicate column 1 of 3): 17546 | Fluorescence competitive binding assay, OBP2 (raw fluorescence reading) (SfurOBP2; ligand concentration 8 (unit not given), replicate column 2 of 3): 19283 | Fluorescence competitive binding assay, OBP2 (raw fluorescence reading) (SfurOBP2; ligand concentration 8 (unit not given), replicate column 3 of 3): 19094 | Fluorescence competitive binding assay, OBP2 (raw fluorescence reading) (SfurOBP2; ligand concentration 10 (unit not given), replicate column 1 of 3): 16315 | Fluorescence competitive binding assay, OBP2 (raw fluorescence reading) (SfurOBP2; ligand concentration 10 (unit not given), replicate column 2 of 3): 17446 | Fluorescence competitive binding assay, OBP2 (raw fluorescence reading) (SfurOBP2; ligand concentration 10 (unit not given), replicate column 3 of 3): 18120 | Fluorescence competitive binding assay, OBP2 (raw fluorescence reading) (SfurOBP2; ligand concentration 12 (unit not given), replicate column 1 of 3): 15600 | Fluorescence competitive binding assay, OBP2 (raw fluorescence reading) (SfurOBP2; ligand concentration 12 (unit not given), replicate column 2 of 3): 16015 | Fluorescence competitive binding assay, OBP2 (raw fluorescence reading) (SfurOBP2; ligand concentration 12 (unit not given), replicate column 3 of 3): 15598 | Fluorescence competitive binding assay, OBP2 (raw fluorescence reading) (SfurOBP2; ligand concentration 14 (unit not given), replicate column 1 of 3): 15415 | Fluorescence competitive binding assay, OBP2 (raw fluorescence reading) (SfurOBP2; ligand concentration 14 (unit not given), replicate column 2 of 3): 15014 | Fluorescence competitive binding assay, OBP2 (raw fluorescence reading) (SfurOBP2; ligand concentration 14 (unit not given), replicate column 3 of 3): 15552 | Fluorescence competitive binding assay, OBP2 (raw fluorescence reading) (SfurOBP2; ligand concentration 16 (unit not given), replicate column 1 of 3): 16559 | Fluorescence competitive binding assay, OBP2 (raw fluorescence reading) (SfurOBP2; ligand concentration 16 (unit not given), replicate column 2 of 3): 13446 | Fluorescence competitive binding assay, OBP2 (raw fluorescence reading) (SfurOBP2; ligand concentration 16 (unit not given), replicate column 3 of 3): 13014 | Fluorescence competitive binding assay, OBP2 (raw fluorescence reading) (SfurOBP2; ligand concentration 18 (unit not given), replicate column 1 of 3): 16224 | Fluorescence competitive binding assay, OBP2 (raw fluorescence reading) (SfurOBP2; ligand concentration 18 (unit not given), replicate column 2 of 3): 16658 | Fluorescence competitive binding assay, OBP2 (raw fluorescence reading) (SfurOBP2; ligand concentration 18 (unit not given), replicate column 3 of 3): 15875 | Fluorescence competitive binding assay, OBP2 (raw fluorescence reading) (SfurOBP2; ligand concentration 20 (unit not given), replicate column 1 of 3): 15466 | Fluorescence competitive binding assay, OBP2 (raw fluorescence reading) (SfurOBP2; ligand concentration 20 (unit not given), replicate column 2 of 3): 14819 | Fluorescence competitive binding assay, OBP2 (raw fluorescence reading) (SfurOBP2; ligand concentration 20 (unit not given), replicate column 3 of 3): 14364
SMILES: CCCCCC=O [caproaldehyde]
number of insects choosing hexane arm (S. furcifera adults): 9 | number of insects choosing volatilies arm (S. furcifera adults): 12 | number of insects failed (no choice) (S. furcifera adults): 19
